From ChEMBL document CHEMBL5260814, “Design strategies in the prodrugs of HIV-1 protease inhibitors to improve the pharmaceutical properties” (Eur J Med Chem, 2017)
Values after ≈ are worked out from the molar mass of the structure shown.

Legend:
[1] = Cmax in rat in presence of Ritonavir; type: ADME; details: in vivo
[2] = AUC in rat in presence of Ritonavir; type: ADME; set-up: concentration or dose not given beside the values; details: in vivo
[3] = Water solubility of compound; type: physicochemical
[4] = Solubility of compound; type: physicochemical
[5] = Stability of compound in PBS at pH 4.9 assessed as half life; type: physicochemical
[6] = Stability of compound in PBS at pH 5.5 assessed as half life; type: physicochemical
[7] = Stability of compound in PBS at pH 7.4 assessed as half life; type: physicochemical
[8] = Stability of compound in PBS buffer at pH 7.3 assessed as half life; type: physicochemical

Row | Cmax ([1]; read-out: Cmax) | AUC ([2]; read-out: AUC) | solubility [4] | Compound | other results
1 | 318 ng/mL | 3690 ng·h/mL | – | CCN(CC)CC(=O)OCC(=O)O[C@H](CN(CC(C)C)S(=O)(=O)c1ccc2c(c1)OCO2)[C@H](Cc1ccc(OCc2csc(C)n2)cc1)NC(=O)O[C@H]1CO[C@H]2OCC[C@H]21 | –
2 | – | – | – | CC(C)(C)NC(=O)[C@@H]1CSCN1C(=O)[C@@H](O)[C@H](Cc1ccccc1)NC(=O)COc1ccccc1 | solubility [3]: 0.123 mg/mL (≈ 0.246 mM)
3 | 1280 ng/mL | > 4000 ng·h/mL | – | COCCN(CCOC)CC(=O)OCC(=O)O[C@H](CN(CC(C)C)S(=O)(=O)c1ccc2c(c1)OCO2)[C@H](Cc1ccc(OCc2csc(C)n2)cc1)NC(=O)O[C@H]1CO[C@H]2OCC[C@H]21 | –
4 | – | – | 91.5 mg/mL (≈ 123 mM) | Cc1cccc(C)c1OCC(=O)N[C@@H](Cc1ccccc1)[C@H](OC(=O)CCC(=O)NCc1ccncc1)C(=O)N1CSC(C)(C)[C@H]1C(=O)NC(C)(C)C | –
5 | – | – | 31.9 mg/mL (≈ 42.8 mM) | Cc1cccc(C)c1OCC(=O)N[C@@H](Cc1ccccc1)[C@H](OC(=O)CCC(=O)NCc1ccccn1)C(=O)N1CSC(C)(C)[C@H]1C(=O)NC(C)(C)C | –
6 | – | – | – | CC(C)(C)NC(=O)[C@H]1N(C(=O)[C@@H](OC(=O)COc2ccccc2)[C@@H](N)Cc2ccccc2)CSC1(C)C.Cl | solubility [3]: 21 mg/mL; half-life [5]: 24 min; half-life [6]: 3.2 min; half-life [7]: < 1 min
7 | – | – | 50.3 mg/mL (≈ 70.7 mM) | Cc1cccc(C)c1OCC(=O)N[C@@H](Cc1ccccc1)[C@H](OC(=O)CCCC(=O)NCCN)C(=O)N1CSC(C)(C)[C@H]1C(=O)NC(C)(C)C | –
8 | 776 ng/mL | 3960 ng·h/mL | – | Cc1nc(COc2ccc(C[C@H](NC(=O)O[C@H]3CO[C@H]4OCC[C@H]43)[C@@H](CN(CC(C)C)S(=O)(=O)c3ccc4c(c3)OCO4)OC(=O)COC(=O)[C@@H](N)CC(C)C)cc2)cs1 | –
9 | 1280 ng/mL | > 4000 ng·h/mL | – | Cc1nc(COc2ccc(C[C@H](NC(=O)O[C@H]3CO[C@H]4OCC[C@H]43)[C@@H](CN(CC(C)C)S(=O)(=O)c3ccc4c(c3)OCO4)OC(=O)COC(=O)CN3CCOCC3)cc2)cs1 | –
10 | 791 ng/mL | 5350 ng·h/mL | – | Cc1nc(COc2ccc(C[C@H](NC(=O)O[C@H]3CO[C@H]4OCC[C@H]43)[C@@H](CN(CC(C)C)S(=O)(=O)c3ccc4c(c3)OCO4)OC(=O)COC(=O)CN(C)CCc3ccccn3)cc2)cs1 | –
11 | – | – | 30.3 mg/mL (≈ 40.6 mM) | Cc1cccc(C)c1OCC(=O)N[C@@H](Cc1ccccc1)[C@H](OC(=O)CCC(=O)NCc1cccnc1)C(=O)N1CSC(C)(C)[C@H]1C(=O)NC(C)(C)C | –
12 | 603 ng/mL | 7040 ng·h/mL | – | Cc1nc(COc2ccc(C[C@H](NC(=O)O[C@H]3CO[C@H]4OCC[C@H]43)[C@@H](CN(CC(C)C)S(=O)(=O)c3ccc4c(c3)OCO4)OC(=O)COCC(=O)Nc3ccn[nH]3)cc2)cs1 | –
13 | 407 ng/mL | 4710 ng·h/mL | – | COCCN(C)CC(=O)OCC(=O)O[C@H](CN(CC(C)C)S(=O)(=O)c1ccc2c(c1)OCO2)[C@H](Cc1ccc(OCc2csc(C)n2)cc1)NC(=O)O[C@H]1CO[C@H]2OCC[C@H]21 | –
14 | – | – | 53.2 mg/mL (≈ 69.3 mM) | Cc1cccc(C)c1OCC(=O)N[C@@H](Cc1ccccc1)[C@H](OC(=O)CCC(=O)NCCN1CCOCC1)C(=O)N1CSC(C)(C)[C@H]1C(=O)NC(C)(C)C | –
15 | – | – | – | CC(C)(C)NC(=O)[C@@H]1CSCN1C(=O)[C@@H](OC(=O)COc1ccccc1)[C@@H](N)Cc1ccccc1.Cl | solubility [3]: 32 mg/mL; half-life [5]: 21.2 min; half-life [6]: 2.9 min; half-life [7]: < 1 min
16 | – | – | – | Cc1ccccc1OCC(=O)N[C@@H](Cc1ccccc1)[C@H](O)C(=O)N1CSC[C@H]1C(=O)NC(C)(C)C | solubility [3]: 0.042 mg/mL (≈ 0.0818 mM)
17 | – | – | 77.1 mg/mL (≈ 110 mM) | Cc1cccc(C)c1OCC(=O)N[C@@H](Cc1ccccc1)[C@H](OC(=O)CCC(=O)NCCN)C(=O)N1CSC(C)(C)[C@H]1C(=O)NC(C)(C)C | –
18 | – | – | 93.8 mg/mL (≈ 125 mM) | Cc1cccc(C)c1OCC(=O)N[C@@H](Cc1ccccc1)[C@H](OC(=O)CCC(=O)NCCN1CCCC1)C(=O)N1CSC(C)(C)[C@H]1C(=O)NC(C)(C)C | –
19 | 517 ng/mL | 4220 ng·h/mL | – | Cc1nc(COc2ccc(C[C@H](NC(=O)O[C@H]3CO[C@H]4OCC[C@H]43)[C@@H](CN(CC(C)C)S(=O)(=O)c3ccc4c(c3)OCO4)OC(=O)COC(=O)[C@@H](N)CCCCN)cc2)cs1 | –
20 | – | – | – | Cc1nc(COc2ccc(C[C@H](NC(=O)O[C@H]3CO[C@H]4OCC[C@H]43)[C@H](O)CN(CC(C)C)S(=O)(=O)c3ccc4c(c3)OCO4)cc2)cs1 [BRECANAVIR] | Cmax [1]: 696 ng/mL; AUC [2]: 1960 ng·h/mL
21 | – | – | – | CC(C)(C)NC(=O)[C@@H]1CN(Cc2cccnc2)CCN1C[C@H](C[C@@H](Cc1ccccc1)C(=O)N[C@H]1c2ccccc2C[C@H]1OC(=O)CCCCO[C@H]1O[C@H](CO)[C@@H](O)[C@H](O)[C@@H]1O)OC(=O)CCCCO[C@H]1O[C@H](CO)[C@@H](O)[C@H](O)[C@@H]1O | half-life [8]: 50 h
22 | – | – | – | Cc1cccc(C)c1OCC(=O)O[C@H](C(=O)N1CSC[C@H]1C(=O)NC(C)(C)C)[C@@H](N)Cc1ccccc1.Cl | solubility [3]: 15 mg/mL; half-life [5]: 23.8 min; half-life [6]: 4.2 min; half-life [7]: < 1 min
